Source: patent US20250034196A1, “ESTER DERIVATIVES OF N4-HYDROXYCYTIDINE AND USE THEREOF” (priority 2021, published 2025)

Assays:
in vitro [1] = assay type: in vitro ADME; settings: plasma
Protocol: (§1) Preparation of Solutions: Stock solution (10 mM) of each of test compounds was prepared in DMSO. The stock solution for each compound was then diluted into 100 μM with acetonitrile.
Plasma Incubations: Plasma incubations were conducted in duplicate in 96-well plate at 37° C. Plasma was prewarmed in a total volume of 198 μL for 5 min at 37° C., then added 2 μL of 100 μM test compound into an incubation well containing plasma, pipette-mixed to achieve a homogenous suspension and immediately transferred 20 μL incubate as a 0 min sample to wells in a “Quenching” plate followed by adding 200 μL of acetonitrile with metolazone as internal standard (IS) and pipette-mixing. At 2, 5, 60, and 90 min, pipette-mixed the incubate and serially transfer samples of 20 μL incubate per time point to wells in a separate “Quenching” plate followed by adding 200 μL of acetonitrile with metolazone as IS and pipette-mixing.
(§2) Sample Analysis: The 96-well plate was centrifuged at 6000 g for 10 min. The supernatant was injected onto the LC-MS/MS system for analysis.

in vitro [2] = assay type: in vitro ADME; settings: microsomes, pH 7.4
Protocol: as §1
(§3) Microsome Incubations: Incubation mixtures were prepared in a total volume of 200 μL with final component concentrations as follows: 0.1M PBS (pH 7.4), NADPH (2 mM) and liver microsomes (0.2 mg/mL) as well as test compound (1 μM) or Molnupiravir (1 μM) as a positive control, wherein the NADPH was added after a 5-min preincubation of all other components at 37° C. Pipette-mixed to achieve a homogenous suspension and immediately transferred 20 μL incubate as a 0 min sample to wells in a “Quenching” plate followed by adding 200 μL of acetonitrile with metolazone as IS and pipette-mixing. At 2, 5, 10, and 45 min, pipette-mixed the incubate and serially transfer samples of 20 μL incubate per time point to wells in a separate “Quenching” plate followed by adding 200 μL of acetonitrile with metolazone as IS and pipette-mixing.
as §2

Microsome stability = assay type: in vitro ADME, Monkey; settings: monkey, microsomes, pH 7.4
Protocol: as §1, §3, §2

[3] = test system: SARS-CoV-2, Hongkong strain; assay type: in vivo, K18 hACE2 transgenic mice
in vivo = test: in vivo; set-up: species or system Beagle Dogs; settings: dog, po; for Cmax: Cmax of EX-2/CH2101; for Tmax: Tmax of EX-2/CH2101; for AUC(0-t): AUClast of EX-2/CH2101; for concentration at 0.25 hr / concentration at 0.5 hr / concentration at 1 hr / concentration at 0.083 hr: Plasma concentration of EX-2/CH2101
Protocol: Example 174: Pharmacokinetic Study of EX-2 (CH2101), Molnupiravir (CH2017) and its Metabolite NHC (CH2018) Following a Single PO Administration of EX-2 (CH2101) or Molnupiravir (CH2017) in Male and Female Beagle Dogs
Both test compounds were prepared in 1% methyl cellulose (400 cps, SIGMA, SLCF9694) solution in purified water.
A total of 6 male+6 female Beagle Dogs, approximately 7-13 kg of bodyweight, were originally purchased from Marshall Biotechnology Co., Ltd. The animals were fasted overnight prior to dosing and food was re-provided after 4 hours post dosing.
The animals were restrained manually, and approximately 1 mL of blood at each time point was collected into pre-cooled EDTA-K2 tubes via cephalic or saphenous veins. Blood samples were centrifuged at 4° C. (4000 rpm. 5 min) to obtain plasma within 30 min after sample collection. All samples were stored at approximately −80° C. until analysis. The backup samples will be discarded after the in vivo experiment has been completed for two months unless requested.

in vitro [4] = settings: African green monkey

CC(=O)ONc1ccn([C@@H]2O[C@H](CO)[C@@H](O)[C@H]2O)c(=O)n1 [EX-2]
half-life at 1 µM (in vitro [1]; dog): 79.1 min | half-life at 1 µM (in vitro [1]; human): 11.6 min | half-life at 1 µM (in vitro [1]; monkey): 29.3 min | half-life at 1 µM (in vitro [1]; mouse): 7.4 min | half-life at 1 µM (in vitro [1]; rat): 87.8 min | half-life at 1 µM (in vitro [2]; dog): 76.3 min | half-life at 1 µM (in vitro [2]; human): 33.5 min | half-life at 1 µM (in vitro [2]; mouse): 16.2 min | half-life at 1 µM (in vitro [2]; rat): 288 min | half-life at 1 µM (Microsome stability): 50.8 min | Survival proportions ([3]; 14-day study, twice daily days 0-6, CH2101 450 mg/kg PO, Remdesivir 25 mg/kg SC): 100% | Antiviral efficacy in vivo (conclusion) ([3]; 450 mpk PO twice daily): optimal antiviral efficacy in vivo | Clinical symptoms (observation) ([3]; CH2101 450 mpk PO twice daily days 0-6): no infection-related clinical symptom was observed | Body weights (observation) ([3]; EX-2/CH2101 450 mpk PO twice daily days 0-6): without notable body weight loss observed | Virus titer in lung ([3]; day 5, plaque assay, mean, twice daily days 0-4, CH2101 450 mpk PO, Remdesivir 25 mpk SC): 2.64 Log 10 plaque#/g lung | Virus titer in lung, mean difference vs. group 1 (Vehicle group) ([3]; day 5, CH2101 450 mpk PO, Remdesivir 25 mpk SC): 3.31 Log | Median survival time ([3]; twice daily days 0-6, CH2101 450 mg/kg PO, Remdesivir 25 mg/kg SC): Undefined | Cmax (in vivo; both sexes, Beagle, 20 mg/kg): 0.0128 µg/mL | Tmax (in vivo; both sexes, Beagle, 20 mg/kg): 15 min | AUC(0-t) (in vivo; both sexes, beagle, 10 mg/kg): 5.07 ng·h/mL | Cmax (in vivo; both sexes, beagle, 10 mg/kg): 0.0155 µg/mL | concentration at 0.25 hr (in vivo; both sexes, beagle, 10 mg/kg): 0.016 µg/mL | concentration at 0.5 hr (in vivo; both sexes, beagle, 10 mg/kg): 0.0107 µg/mL | concentration at 1 hr (in vivo; both sexes, beagle, 10 mg/kg): 0.0122 µg/mL | Tmax (in vivo; both sexes, beagle, 10 mg/kg): 26.3 min | AUC(0-t) (in vivo; both sexes, beagle, 20 mg/kg): 5.43 ng·h/mL | concentration at 0.083 hr (in vivo; both sexes, beagle, 20 mg/kg): 0.0112 µg/mL | concentration at 0.25 hr (in vivo; both sexes, beagle, 20 mg/kg): 0.0128 µg/mL | concentration at 0.5 hr (in vivo; both sexes, beagle, 20 mg/kg): 0.0105 µg/mL | concentration at 1 hr (in vivo; both sexes, beagle, 20 mg/kg): 0.0113 µg/mL | Plasma concentration of EX-1/NHC/CH2018 (in vivo; both, Beagle, 20 mg/kg, 6 hr): 0.401 µg/mL | Plasma concentration of EX-1/NHC/CH2018 (in vivo; both, Beagle, 20 mg/kg, 8 hr): 0.138 µg/mL | Plasma concentration of EX-1/NHC/CH2018 (in vivo; both, Beagle, 20 mg/kg, 24 hr): 0.0177 µg/mL | AUCmale/female of EX-1/NHC/CH2018 (in vivo; both, beagle, 20 mg/kg): 69.2% | AUCmale/female of EX-2/CH2101 (in vivo; both, beagle, 20 mg/kg): 96.1% | Plasma concentration of EX-1/NHC/CH2018 (in vivo; both, beagle, 20 mg/kg, 0.083 hr): 0.148 µg/mL | Plasma concentration of EX-1/NHC/CH2018 (in vivo; both, beagle, 20 mg/kg, 0.25 hr): 2.014 µg/mL | Plasma concentration of EX-1/NHC/CH2018 (in vivo; both, beagle, 20 mg/kg, 0.5 hr): 3.703 µg/mL | Plasma concentration of EX-1/NHC/CH2018 (in vivo; both, beagle, 20 mg/kg, 1 hr): 6.118 µg/mL | Plasma concentration of EX-1/NHC/CH2018 (in vivo; both, beagle, 20 mg/kg, 2 hr): 5.958 µg/mL | Plasma concentration of EX-1/NHC/CH2018 (in vivo; both, beagle, 20 mg/kg, 4 hr): 1.6 µg/mL | AUC(0-t) (in vivo; female, Beagle, 20 mg/kg): 5.54 ng·h/mL | Cmax (in vivo; female, Beagle, 20 mg/kg): 0.013 µg/mL | Tmax (in vivo; female, Beagle, 20 mg/kg): 15 min | Cmax of EX-2/CH2101 (in vivo; female, beagle, 10 mg/kg): 0.014 µg/mL | Tmax of EX-2/CH2101 (in vivo; female, beagle, 10 mg/kg): 60 min | Cmax (in vivo; female, beagle, 10 mg/kg): 0.0122 µg/mL | concentration at 0.25 hr (in vivo; female, beagle, 10 mg/kg): 0.014 µg/mL | concentration at 1 hr (in vivo; female, beagle, 10 mg/kg): 0.0122 µg/mL | concentration at 0.25 hr (in vivo; female, beagle, 20 mg/kg): 0.013 µg/mL | concentration at 1 hr (in vivo; female, beagle, 20 mg/kg): 0.0113 µg/mL | AUC(0-t) (in vivo; male, Beagle, 20 mg/kg): 5.32 ng·h/mL | Cmax (in vivo; male, Beagle, 20 mg/kg): 0.0125 µg/mL | Tmax (in vivo; male, Beagle, 20 mg/kg): 15 min | AUC(0-t) (in vivo; male, beagle, 10 mg/kg): 5.07 ng·h/mL | Cmax (in vivo; male, beagle, 10 mg/kg): 0.0179 µg/mL | concentration at 0.25 hr (in vivo; male, beagle, 10 mg/kg): 0.0179 µg/mL | concentration at 0.5 hr (in vivo; male, beagle, 10 mg/kg): 0.0107 µg/mL | Tmax (in vivo; male, beagle, 10 mg/kg): 15 min | concentration at 0.083 hr (in vivo; male, beagle, 20 mg/kg): 0.0112 µg/mL | concentration at 0.25 hr (in vivo; male, beagle, 20 mg/kg): 0.0125 µg/mL | concentration at 0.5 hr (in vivo; male, beagle, 20 mg/kg): 0.0105 µg/mL | CC50 at 4 days (in vitro [4]): 18.2 µM
